From patent US8119128B2, “Antibodies that bind urokinase-type plasminogen activator and epitopes therefor” (The Regents of the University of Colorado, a body corporate, priority 2004, dated 2012)

B1: KD: purified kringle domain of uPA (amino acids 47-135), SEQ ID NO:2 epitope (protein)
chain: SKTCYEGNGHFYRGKASTDTMGRPCLPWNSATVLQQTYHAHRSDALQLGLGKHNYCRNPDNRRRPWCYVQVGLKPLVQECMVHDCA

Key:
Type in all cases: cell-based, mouse
[1] = test system: LPS stimulated neutrophils; assay: LPS-induced cytokine mRNA expression in neutrophils, quantitative RT-PCR; details: LPS 10 ng/ml, protein 10 nM, 4 hours; FIG. 1-4
Description: Isolation of neutrophils. Neutrophils were purified from bone marrow cell suspensions as previously described by Abraham, et al., J Immunol 170:5644 (2003), Asehnoune, et al., J Immunol 172:2522 (2004), and Strassheim, et al., Am J Physiol Cell Physiol 286:C683 (2004). Briefly summarized, to obtain the bone marrow cell suspension, the femur and tibia of a mouse were flushed with 5 ml RPMI 1640/penicillin/streptomycin and the cells passed through a glass wool column, and pelleted by centrifugation at 1000 rpm for 10 minutes. […] Neutrophil purity, as determined by Wright's stained cytospin preparations, was greater than 97%. Cell viability, as determined by trypan blue exclusion, was consistently greater than 98%.
(§1) Real time quantitative RT-PCR. Quantitative RT-PCR to measure neutrophil cytokine expression was performed as previously described by Abraham, et al., J Immunol 170:5644 (2003), and Park, et al., Am J Physiol Cell Physiol 284:C870 (2003). […] For each mRNA detected, a fluorogenic probe and two primers (forward and reverse) for PCR were synthesized (Applied Biosystems, Foster City, Calif.). […]
All reagents used in the one step RT-PCR reactions were purchased from Applied Biosystems. […] The amount of cytokine mRNA was determined from a standard curve with 10 fold dilutions of known amounts of target RNA for each primer and probe set. […]

integrins = assay: RGD or RGE peptide added to neutrophil cultures containing uPA and LPS; details: LPS 10 ng/ml, scuPA 10 nM, peptide 50 μM, 4 hours; FIG. 7
Description: (§2) Isolation of neutrophils. Neutrophils were purified from bone marrow cell suspensions as previously described by Abraham, et al., J Immunol 170:5644 (2003), Asehnoune, et al., J Immunol 172:2522 (2004), and Strassheim, et al., Am J Physiol Cell Physiol 286:C683 (2004). Briefly summarized, to obtain the bone marrow cell suspension, the femur and tibia of a mouse were flushed with 5 ml RPMI 1640/penicillin/streptomycin and the cells passed through a glass wool column, and pelleted by centrifugation at 1000 rpm for 10 minutes. The cell pellets were resuspended in 0.3% FCS/PBS and then incubated with 20 μl of primary antibodies specific for cell surface markers F4/80, CD4, CD45R, CD5, and TER19 for 15 minutes, rotating at 4° C. This custom cocktail (Stem Cell Technologies, Vancouver, British Columbia) is specific for T and B cells, RBC, monocytes and macrophages. Anti-biotin tetrameric antibody complexes (100 μl) were then added, and the cells incubated for 15 minutes, rotating at 4° C. Following this, 60 μl of colloidal magnetic dextran iron particles was added to the suspension and incubated for 15 minutes, rotating at 4° C. The entire cell suspension was then placed into a column, surrounded by a magnet. The T cells, B cells, RBC, monocytes and macrophages were captured in the column, allowing the neutrophils to pass through by negative selection methods. Neutrophil purity, as determined by Wright's stained cytospin preparations, was greater than 97%. Cell viability, as determined by trypan blue exclusion, was consistently greater than 98%.
as §1

[2] = test system: LPS stimulated neutrophils; assay: Cytokine ELISA of culture supernatants of LPS stimulated neutrophils; details: LPS 10 ng/ml, protein 10 nM, 4 hours, FIG. 5
Description: as §2, with “Anti-biotin tetrameric antibody complexes (100 μl) were then added, and the cells incubated for 15 minutes, rotating at 4° C. Following this, 60 μl of colloidal magnetic dextran iron particles was added to the suspension and incubated for 15 minutes, rotating at 4° C. The entire cell suspension was then placed into a column, surrounded by a magnet. The T cells, B cells, RBC, monocytes and macrophages were captured in the column, allowing the neutrophils to pass through by negative selection methods.” left out
Cytokine ELISA. Immunoreactive TNF-α, IL-1β, and MIP-2 were quantified using commercially available ELISA kits (R&D Systems, Minneapolis, Minn.), according to manufacturer's instructions and as described previously by Yum, et al., J Immunol 167:6601 (2001). […]

| Molecule | enhancement of LPS-induced cytokine mRNA expression (IL-1β, TNF-α, MIP-2) compared with scuPA [1] | uPA-induced potentiation of neutrophil responses (integrins) | increased production of IL-1β, TNF-α, and MIP-2 produced by co-culture of LPS stimulated neutrophils with scuPA (integrins) | neutrophil production (secretion) of IL-1β, TNF-α, and MIP-2 [2] |
| --- | --- | --- | --- | --- |
| ATF: amino terminal fragment of uPA, which contains the uPA GFD and KD | to the same extent as did scuPA | – | – | – |
| RGE: RGE peptide that serves as a control | – | not | – | – |
| RGD: RGD peptide that blocks interactions with integrins | – | blocked | prevented | – |
| B1 | to the same extent or even a greater extent than did scuPA | – | – | to the same extent as did intact scuPA |
